Calls of active or inactive are those of the source. No cut-off for these calls is given here.

Consider one molecule from ChEMBL document CHEMBL6177998, “Rational Design of Dual Degraders by Incorporating Molecular Glue Structural Features into PROTAC Degraders” (J Med Chem, 2025).

Experiment [1] has as its system Protein cereblon/Androgen receptor (Homo sapiens), P10275+Q96SW2 [UNDEFINED MUTATION]. In words: PROTAC activity at CRBN/Androgen receptor splice variant 7 in human 22Rv1 cells assessed as induction of AR-V7 degradation at 20 nM incubated for 24 hrs by Western blot analysis (reference value: 0%). Format: cell-based. Background: A western blot detects proteins with antibodies after separation by electrophoresis.

Experiment [2] concerns the target T1, Protein cereblon/Androgen receptor (Homo sapiens, UniProt P10275+Q96SW2). Briefly: PROTAC activity at CRBN/AR in human 22Rv1 cells assessed as decrease in TMPRSS2 mRNA level at 1 to 3 nM incubated for 24 hrs by qRT-PCR analysis. It is filed as cell-based. Particulars: dose 1-3 nM. On the technique in general: Quantitative PCR measures a nucleic acid by following its amplification.

Experiment [3] has as its target T1, Protein cereblon/Androgen receptor. In words: PROTAC activity at CRBN/AR in human LNCaP cells assessed as decrease in PSA protein level incubated for 24 hrs by Western blot analysis. It is filed as cell-based. Particulars: dose 1-100 nM.
In experiment [4] the target is T2, Protein cereblon/Eukaryotic peptide chain release factor GTP-binding subunit ERF3A (Homo sapiens, UniProt Q96SW2+P15170). In words: Molecular glue activity at CRBN/GSPT1 in human 22Rv1 cells assessed as induction of GSPT1 degradation at 50 uM preincubated with thalidomide followed by compound addition and measured after 12 hrs by Western blot analysis. It is filed as cell-based.

Experiment [5] addresses Androgen receptor (Homo sapiens, UniProt P10275, F877L). Briefly: Inhibition of AR F876L mutant (unknown origin) transcriptional activity transfected in HEK293T cells co-transfected with PSA-luciferase reporter and pRL-TK assessed as reduction in PSA-luciferase activity incubated for 24 hrs by luminescence based microplate reader analysis. Format: cell-based. Background: Reporter assays use an easily measured gene product as a stand-in for the process of interest.

For experiment [6], the target named is T2, Protein cereblon/Eukaryotic peptide chain release factor GTP-binding subunit ERF3A. Briefly: Molecular glue activity at CRBN/GSPT1 in human 22Rv1 cells assessed as induction of GSPT1 degradation at 20 uM preincubated with EPI-002 for 4 hrs followed by compound addition and measured after 36 hrs by Western blot analysis. Format: cell-based.
Experiment [7] concerns the target T3, Androgen receptor (Homo sapiens, UniProt P10275).
T3 sequence (P10275 whole entry): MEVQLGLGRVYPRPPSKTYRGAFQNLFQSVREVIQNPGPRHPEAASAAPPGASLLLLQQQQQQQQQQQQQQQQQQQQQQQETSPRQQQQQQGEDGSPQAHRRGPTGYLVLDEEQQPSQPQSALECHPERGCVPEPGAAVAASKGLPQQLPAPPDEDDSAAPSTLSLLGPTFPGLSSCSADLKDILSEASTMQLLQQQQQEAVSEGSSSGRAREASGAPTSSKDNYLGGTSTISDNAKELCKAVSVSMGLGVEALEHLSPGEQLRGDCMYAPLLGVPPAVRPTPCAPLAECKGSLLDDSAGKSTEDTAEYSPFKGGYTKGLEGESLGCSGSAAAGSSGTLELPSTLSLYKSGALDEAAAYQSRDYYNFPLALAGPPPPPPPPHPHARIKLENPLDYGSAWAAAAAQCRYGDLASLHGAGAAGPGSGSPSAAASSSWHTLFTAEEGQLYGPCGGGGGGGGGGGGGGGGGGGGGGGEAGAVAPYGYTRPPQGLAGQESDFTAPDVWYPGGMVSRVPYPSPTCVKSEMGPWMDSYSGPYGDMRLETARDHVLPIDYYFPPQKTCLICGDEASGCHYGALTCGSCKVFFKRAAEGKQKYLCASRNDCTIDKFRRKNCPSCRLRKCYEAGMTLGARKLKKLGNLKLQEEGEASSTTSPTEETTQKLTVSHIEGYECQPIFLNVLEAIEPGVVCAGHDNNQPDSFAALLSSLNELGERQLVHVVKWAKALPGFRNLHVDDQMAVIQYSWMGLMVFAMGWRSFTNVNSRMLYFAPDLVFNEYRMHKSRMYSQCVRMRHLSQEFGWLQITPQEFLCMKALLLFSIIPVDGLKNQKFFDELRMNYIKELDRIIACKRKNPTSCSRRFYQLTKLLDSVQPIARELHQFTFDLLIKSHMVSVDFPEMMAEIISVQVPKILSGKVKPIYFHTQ
Briefly: Inhibition of wildtype AR (unknown origin) transcriptional activity transfected in HEK293T cells co-transfected with PSA-luciferase reporter and pRL-TK assessed as reduction in PSA-luciferase activity incubated for 24 hrs by luminescence based microplate reader analysis. Format: cell-based.

For experiment [8], the target named is T1, Protein cereblon/Androgen receptor. Briefly: PROTAC activity at CRBN/AR in human 22Rv1 cells assessed as increase in androgen receptor polyubiquitination at 30 nM preincubated with compound for 12 hrs followed by MG132 addition and measured after 12 hrs by immunoprecipitation based Western blot analysis. It is filed as cell-based. Particulars: time 24.0 hrs.

In a further experiment the test system is LNCaP. In words: Antiproliferative activity against AR-dependent human LNCaP cells assessed as cell growth inhibition incubated for 72 hrs by Celltiter-lumi luminescent cell viability assay. It is filed as functional, cell-based.
The test system of the next experiment is CWR22R. In words: Effect on GSPT1 mRNA expression in human 22Rv1 cells at 1 to 10 nM incubated for 24 hrs by RT-PCR analysis. Format: functional, cell-based. To be noted: dose 1-10 nM.
Experiment [9] deals with Protein cereblon/Androgen receptor (Homo sapiens), P10275+Q96SW2 [UNDEFINED MUTATION]. In words: PROTAC activity at CRBN/Androgen receptor splice variant 7 in human VCaP cells assessed as induction of AR-V7 degradation at 50 nM preincubated with MG132 followed by compound addition and measured after 12 hrs by Western blot analysis. It is filed as cell-based.
Experiment [10] deals with T1, Protein cereblon/Androgen receptor. In words: PROTAC activity at CRBN/AR in human VCaP cells assessed as induction of AR degradation at 20 nM by Western blot analysis. It is filed as cell-based. Particulars: time 1-36 hrs.
The subject of experiment [11] is Protein cereblon/Androgen receptor (Homo sapiens), P10275+Q96SW2 [UNDEFINED MUTATION]. In words: PROTAC activity at CRBN/Androgen receptor splice variant 7 in human 22Rv1 cells assessed as induction of AR-V7 degradation at 50 nM preincubated with MG132 followed by compound addition and measured after 12 hrs by Western blot analysis. Format: cell-based.
Experiment [12] has as its target T2, Protein cereblon/Eukaryotic peptide chain release factor GTP-binding subunit ERF3A. Briefly: Molecular glue activity at CRBN/GSPT1 in human LNCaP cells assessed as induction of GSPT1 degradation at 20 nM by Western blot analysis. It is filed as cell-based. Particulars: time 1-36 hrs.
Experiment [13] relates to Protein cereblon/Androgen receptor (Homo sapiens), P10275+Q96SW2 [UNDEFINED MUTATION]. Briefly: PROTAC activity at CRBN/Androgen receptor splice variant 7 in human 22Rv1 cells assessed as induction of AR-V7 degradation at 50 nM preincubated with MLN4924 followed by compound addition and measured after 12 hrs by Western blot analysis. Format: cell-based.
For experiment [14] the test system is unchanged. Briefly: PROTAC activity at CRBN/Androgen receptor splice variant 7 in human 22Rv1 cells assessed as induction of AR-V7 degradation by measuring maximal efficacy incubated for 24 hrs by Western blot analysis relative to control. Format: cell-based.
In the next experiment the test system is DU-145. Briefly: Antiproliferative activity against AR-independent human DU-145 cells assessed as cell growth inhibition incubated for 72 hrs by Celltiter-lumi luminescent cell viability assay. It is filed as functional, cell-based. Particulars: DU-145, 72 h.
The subject of experiment [15] is Protein cereblon/Androgen receptor (Homo sapiens), P10275+Q96SW2 [UNDEFINED MUTATION]. In words: PROTAC activity at CRBN/Androgen receptor splice variant 7 in human VCaP cells assessed as induction of AR-V7 degradation at 50 nM preincubated with MLN4924 followed by compound addition and measured after 12 hrs by Western blot analysis. It is filed as cell-based.
The target of experiment [16] is T1, Protein cereblon/Androgen receptor. In words: PROTAC activity at CRBN/AR in human 22Rv1 cells assessed as induction of AR degradation at 20 uM preincubated with EPI-002 for 4 hrs followed by compound addition and measured after 36 hrs by Western blot analysis. It is filed as cell-based.
For experiment [17] the target is unchanged. Briefly: In vivo PROTAC activity at CRBN/AR in male NOD SCID mouse model xenografted with human LNCaP cells assessed as reduction in androgen receptor level in tumor at 20 mg/kg, po administered daily for 26 days by Western blot analysis. Format: functional, organism-based. To be noted: time 26.0 day.

T1 sequence (Q96SW2 whole entry, looked up, one chain of several): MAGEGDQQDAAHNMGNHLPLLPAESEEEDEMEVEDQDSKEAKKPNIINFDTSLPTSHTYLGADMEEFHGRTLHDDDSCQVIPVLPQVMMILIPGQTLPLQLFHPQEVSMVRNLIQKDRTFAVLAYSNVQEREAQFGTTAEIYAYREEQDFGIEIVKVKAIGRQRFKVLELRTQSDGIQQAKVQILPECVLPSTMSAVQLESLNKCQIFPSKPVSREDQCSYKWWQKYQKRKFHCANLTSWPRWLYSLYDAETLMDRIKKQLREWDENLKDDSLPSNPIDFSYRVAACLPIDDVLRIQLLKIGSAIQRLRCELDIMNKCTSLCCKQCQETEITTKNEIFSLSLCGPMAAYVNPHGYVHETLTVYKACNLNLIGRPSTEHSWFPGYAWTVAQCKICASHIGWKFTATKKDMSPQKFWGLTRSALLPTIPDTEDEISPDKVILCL
Protein cereblon/Androgen receptor (Homo sapiens), P10275+Q96SW2 [UNDEFINED MUTATION], sequence (Q96SW2 whole entry, looked up, stated change not applied, one chain of several, canonical isoform): as the sequence (Q96SW2 whole entry, looked up, one chain of several) above
T2 sequence (P15170 whole entry, looked up): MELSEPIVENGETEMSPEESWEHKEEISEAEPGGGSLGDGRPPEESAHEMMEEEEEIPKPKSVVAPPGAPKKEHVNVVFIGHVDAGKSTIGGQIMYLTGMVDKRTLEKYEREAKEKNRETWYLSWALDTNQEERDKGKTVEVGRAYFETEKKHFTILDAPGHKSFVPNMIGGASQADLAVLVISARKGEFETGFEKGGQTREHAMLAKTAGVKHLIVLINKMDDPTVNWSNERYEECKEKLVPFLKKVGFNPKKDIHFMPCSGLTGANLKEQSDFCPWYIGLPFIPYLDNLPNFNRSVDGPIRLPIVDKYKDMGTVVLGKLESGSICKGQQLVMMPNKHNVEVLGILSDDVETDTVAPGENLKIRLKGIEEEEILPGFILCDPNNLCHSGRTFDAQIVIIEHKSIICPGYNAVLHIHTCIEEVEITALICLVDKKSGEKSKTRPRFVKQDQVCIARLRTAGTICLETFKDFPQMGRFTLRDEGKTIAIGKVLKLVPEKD
T2 sequence (Q96SW2 whole entry, looked up): as the sequence (Q96SW2 whole entry, looked up, one chain of several) above
Androgen receptor (Homo sapiens, UniProt P10275, F877L), sequence (P10275 whole entry F877L): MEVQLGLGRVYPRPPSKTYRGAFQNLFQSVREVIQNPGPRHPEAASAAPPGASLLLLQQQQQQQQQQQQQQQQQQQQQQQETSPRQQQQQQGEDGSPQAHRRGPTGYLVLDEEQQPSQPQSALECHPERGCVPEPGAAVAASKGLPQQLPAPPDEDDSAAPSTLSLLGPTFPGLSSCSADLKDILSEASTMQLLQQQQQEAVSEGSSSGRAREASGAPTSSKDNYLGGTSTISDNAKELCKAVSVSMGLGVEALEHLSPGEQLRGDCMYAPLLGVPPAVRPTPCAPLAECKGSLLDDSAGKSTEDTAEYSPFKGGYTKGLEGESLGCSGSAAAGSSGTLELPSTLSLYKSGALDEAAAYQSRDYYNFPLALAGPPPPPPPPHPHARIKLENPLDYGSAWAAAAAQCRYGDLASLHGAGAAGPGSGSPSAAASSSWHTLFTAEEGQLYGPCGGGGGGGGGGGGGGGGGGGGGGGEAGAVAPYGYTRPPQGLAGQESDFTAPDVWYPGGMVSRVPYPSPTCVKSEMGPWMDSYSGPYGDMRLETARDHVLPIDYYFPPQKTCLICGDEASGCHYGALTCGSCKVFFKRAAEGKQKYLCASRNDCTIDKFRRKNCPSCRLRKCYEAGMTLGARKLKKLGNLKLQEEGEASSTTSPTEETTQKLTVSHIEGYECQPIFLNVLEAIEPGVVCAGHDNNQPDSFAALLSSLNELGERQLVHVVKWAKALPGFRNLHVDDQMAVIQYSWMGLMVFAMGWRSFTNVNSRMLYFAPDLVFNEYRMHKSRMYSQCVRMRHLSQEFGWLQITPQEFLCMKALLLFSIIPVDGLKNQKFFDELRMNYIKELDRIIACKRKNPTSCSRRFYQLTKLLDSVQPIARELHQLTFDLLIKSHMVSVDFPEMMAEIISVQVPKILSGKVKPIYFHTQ

As for `COc1ccc(C(C)(C)c2cc(Cl)c(OCC3CCN(C(=O)CCCCCNc4ccc5c(c4)C(=O)N(C4CCC(=O)NC4=O)C5=O)CC3)c(C#N)c2)cc1` (stereo not given), the Activity in experiment [1] was 95.5%; in experiment [3], “Dose-dependent-effect”; with CWR22R, “Minimal_effect”; in experiment [10], “Time-dependent-effect”; in experiment [12] it was “Time-dependent-effect”. In addition, the result in experiment [2], in experiment [6], in experiment [8] and in experiment [17] was Active. Moreover, the outcome in [4], in [9], in experiment [11], in experiment [13], in experiment [15] and in [16] was inactive. For the same molecule, the IC50 on Androgen receptor [5] is 48.6 nM; at Androgen receptor [7], 3.2 nM; in the experiment with LNCaP, 2.8 nM; in the experiment on DU-145, 882 nM. Besides, the Emax in experiment [14] worked out at 92.6%.

What is called IC50 is the concentration at which inhibition is half-maximal. By Emax is commonly meant the size of the effect at its maximum, as opposed to the concentration needed.
